Source: the supplement of paper PMC4862054

Assays:
Assay in all cases: normalised viability (% of control), CellTiter-Blue; higher = more viable cells (about 100 = DMSO control)
MDA-MB-453 [1] = conditions: 3000 nM; incubation time: 72 h
In short: (§1)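 Compound dissolved in 5 µl medium was pre-loaded into 384-well plates, and breast cancer cell lines in 20 µl suspension were seeded on top and incubated 72 h. After adding 2.5 µl CellTiter-Blue reagent for 2 h at 37 °C, fluorescence was read at 560/590 nm. Plates were normalised to vehicle (100) and a positive kill control (0), with Z'-factor quality control. Each value is normalised viability at a single listed concentration from the series.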

CAL-148 [2] = conditions: 3000 nM; incubation time: 72 h
In short: as §1

DU-4475 [3] = conditions: 3000 nM; incubation time: 72 h
In short: as §1

CAL-85-1 [4] = conditions: 3000 nM; incubation time: 72 h
In short: as §1

MDA-MB-453 [5] = conditions: 10000 nM; incubation time: 72 h
Experimental: (§2)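 DSRT, CellTiter-Blue viability, 72 h incubation. Signal is normalised to DMSO and benzethonium chloride controls. Value is the normalised response at dose 9.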

HDQ-P1 = conditions: 10000 nM; incubation time: 72 h
Experimental: as §2

CAL-148 [6] = conditions: 10000 nM; incubation time: 72 h
Experimental: as §2

DU-4475 [7] = conditions: 10000 nM; incubation time: 72 h
Experimental: as §2

CAL-85-1 [8] = conditions: 10000 nM; incubation time: 72 h
Experimental: as §2

CAL-51 [9] = conditions: 10000 nM; incubation time: 72 h
Experimental: as §2

HCC1599 = conditions: incubation time: 72 h
In short: as §1

MDA-MB-231 = conditions: incubation time: 72 h
In short: as §1

BT-549 = conditions: incubation time: 72 h
In short: as §1

MDA-MB-453 [10] = conditions: incubation time: 72 h
In short: as §1

MDA-MB-468 = conditions: incubation time: 72 h
In short: as §1

HCC1937 = conditions: incubation time: 72 h
In short: as §1

DU-4475 [11] = conditions: incubation time: 72 h
In short: as §1

MFM-223 = conditions: incubation time: 72 h
In short: as §1

CAL-85-1 [12] = conditions: incubation time: 72 h
In short: as §1

CAL-120 = conditions: incubation time: 72 h
In short: as §1

SK-BR-3 = conditions: incubation time: 72 h
In short: as §1

Hs578T = conditions: incubation time: 72 h
In short: as §1

BT-474 = conditions: incubation time: 72 h
In short: as §1

CAL-51 [13] = conditions: incubation time: 72 h
In short: as §1

MDA-MB-436 = conditions: incubation time: 72 h
In short: as §1

HCC1143 = conditions: incubation time: 72 h
In short: as §1

C=CC(=O)Nc1cc2c(Nc3ccc(F)c(Cl)c3)ncnc2cc1OCCCN1CCOCC1 [Canertinib]
Conditions | normalised viability [%]
CAL-51 [9] | 4.95
CAL-85-1 [4] | 34.3
CAL-85-1 [8] | 2.97
CAL-148 [2] | 60
CAL-148 [6] | 29.8
DU-4475 [3] | 103
DU-4475 [7] | 6.91
HDQ-P1 | 1.8
MDA-MB-453 [1] | 28.2
MDA-MB-453 [5] | 10.3

normalised viability [%]
Conditions | 3 nM | 10 nM | 30 nM | 100 nM | 1000 nM | 10000 nM
BT-474 | – | 93.7 | – | – | 34.4 | 16.3
BT-549 | – | 103 | – | – | 90.7 | 2.56
CAL-51 [13] | 110 | – | 105 | 105 | – | –
CAL-85-1 [12] | 82.5 | – | 67 | 64.2 | – | –
CAL-120 | – | 79.9 | – | – | 72.5 | 6.63
DU-4475 [11] | 107 | – | 113 | 96.8 | – | –
HCC1143 | – | 74.9 | – | – | 89 | 22.6
HCC1599 | – | 96.2 | – | – | 106 | 43.9
HCC1937 | – | 62.8 | – | – | 73.1 | 13.6
Hs578T | – | 96 | – | – | 108 | 1.26
MDA-MB-231 | – | 91.4 | – | – | 70.6 | 6.79
MDA-MB-436 | – | 139 | – | – | 43.5 | 10.5
MDA-MB-453 [10] | 105 | – | 86.9 | 72.6 | – | –
MDA-MB-468 | – | 89.2 | – | – | 52.9 | 1.77
MFM-223 | – | 94.8 | – | – | 78.6 | 19.7
SK-BR-3 | – | 71.9 | – | – | 19.9 | 12.9

O=C(O)C1(C(=O)O)CCC1.[NH2-].[NH2-].[Pt+2] [Carboplatin]
Conditions | normalised viability [%]
CAL-51 [9] | 42.3
CAL-85-1 [4] | 87.7
CAL-85-1 [8] | 56.2
CAL-148 [2] | 86
CAL-148 [6] | 44.6
DU-4475 [3] | 107
DU-4475 [7] | 63.2
HDQ-P1 | 122
MDA-MB-453 [1] | 105
MDA-MB-453 [5] | 25.9

normalised viability [%]
Conditions | 3 nM | 10 nM | 30 nM | 100 nM | 1000 nM | 10000 nM
BT-474 | – | 127 | – | – | 121 | 113
BT-549 | – | 83.4 | – | – | 92 | 87.7
CAL-51 [13] | 104 | – | 99 | 96.2 | – | –
CAL-85-1 [12] | 98 | – | 82.2 | 99.6 | – | –
CAL-120 | – | 87 | – | – | 95.4 | 78.3
DU-4475 [11] | 99 | – | 74.5 | 89.4 | – | –
HCC1143 | – | 79.8 | – | – | 87.1 | 87.7
HCC1599 | – | 94.5 | – | – | 90.7 | 87.1
HCC1937 | – | 82.3 | – | – | 103 | 54.2
Hs578T | – | 105 | – | – | 94.1 | 109
MDA-MB-231 | – | 85.8 | – | – | 113 | 93.7
MDA-MB-436 | – | 80.3 | – | – | 95.9 | 82.2
MDA-MB-453 [10] | 113 | – | 93.3 | 102 | – | –
MDA-MB-468 | – | 100 | – | – | 98.9 | 83.3
MFM-223 | – | 86 | – | – | 98.4 | 48.7
SK-BR-3 | – | 100 | – | – | 103 | 113
